The record followed here is patent US20210198277A1, “AMINE-SUBSTITUTED ARYL OR HETEROARYL COMPOUNDS” (Epizyme, Inc., priority 2016, published 2021).

One test deals with T1, EHMT2 (Homo sapiens, UniProt Q96KQ7).
T1 construct: host or cells: MDA-MB-231
T1 sequence (Q96KQ7 1-1210): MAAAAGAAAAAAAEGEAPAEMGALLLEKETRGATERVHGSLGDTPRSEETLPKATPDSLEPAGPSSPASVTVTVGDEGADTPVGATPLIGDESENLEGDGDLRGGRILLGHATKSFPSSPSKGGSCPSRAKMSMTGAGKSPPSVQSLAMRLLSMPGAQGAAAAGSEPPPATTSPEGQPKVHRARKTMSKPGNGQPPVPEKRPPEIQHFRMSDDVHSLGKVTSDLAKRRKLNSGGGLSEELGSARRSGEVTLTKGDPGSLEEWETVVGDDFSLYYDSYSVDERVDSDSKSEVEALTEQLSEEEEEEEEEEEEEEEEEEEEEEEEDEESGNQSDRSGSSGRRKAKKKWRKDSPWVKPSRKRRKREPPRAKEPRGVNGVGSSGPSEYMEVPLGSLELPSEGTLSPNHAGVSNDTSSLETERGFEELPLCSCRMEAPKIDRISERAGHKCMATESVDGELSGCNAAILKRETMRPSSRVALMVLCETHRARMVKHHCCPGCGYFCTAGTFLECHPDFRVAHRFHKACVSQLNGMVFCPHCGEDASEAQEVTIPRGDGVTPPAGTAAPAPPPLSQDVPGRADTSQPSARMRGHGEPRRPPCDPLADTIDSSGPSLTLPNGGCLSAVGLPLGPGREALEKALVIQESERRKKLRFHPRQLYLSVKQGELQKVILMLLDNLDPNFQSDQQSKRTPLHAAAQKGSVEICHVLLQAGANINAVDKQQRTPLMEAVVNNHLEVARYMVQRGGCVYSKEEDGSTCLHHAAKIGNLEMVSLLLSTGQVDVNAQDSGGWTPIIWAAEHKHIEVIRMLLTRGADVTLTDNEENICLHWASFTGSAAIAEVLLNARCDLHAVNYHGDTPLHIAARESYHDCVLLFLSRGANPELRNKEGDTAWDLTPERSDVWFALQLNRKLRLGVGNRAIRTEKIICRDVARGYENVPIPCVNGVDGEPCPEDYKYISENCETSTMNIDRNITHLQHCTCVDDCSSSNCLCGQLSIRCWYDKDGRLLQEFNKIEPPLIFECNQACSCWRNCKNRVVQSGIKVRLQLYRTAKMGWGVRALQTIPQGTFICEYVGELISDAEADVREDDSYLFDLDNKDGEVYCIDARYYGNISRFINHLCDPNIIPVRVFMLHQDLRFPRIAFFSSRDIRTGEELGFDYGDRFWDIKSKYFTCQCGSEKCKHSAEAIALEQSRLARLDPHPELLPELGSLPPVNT
Put plainly: MDA-MB-231 H3K9me2 in-cell Western assay (EHMT2 ICW). It is filed as cell-based. The settings on record: Table II; MDA-MB-231 H3K9me2 in-cell Western; read-out: EHMT2 ICW (IC50 μM). The gist of the method: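 MDA-MB-231 cells (3,000/well) were exposed to compound for 30 min at room temperature and then 48 h at 37 °C, fixed with paraformaldehyde, and stained with anti-H3K9me2 (800 nm) plus DRAQ5 (700 nm). Per-well channel ratios gave percent inhibition, and IC50 came from a four-parameter fit of triplicate wells.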
The IC50 is the concentration needed to halve the response being measured. `COc1ccc(Nc2nccc(NCC3CCNCC3)n2)cc1OCCCN1CCCC1` [Compound 90]: the IC50 was greater than 10 µM. As to `COc1ccc(Nc2nccc(NCC(=O)N3CCOCC3)n2)cc1OCCCN1CCCC1` [Compound 51], the IC50 is 1 to 10 µM.

As to `COc1ccc(Nc2nccc(NCC3CCN(CC(F)F)CC3)n2)cc1OCCCN1CCCC1` [Compound 2, N^4-((1-(2,2-difluoroethyl)piperidin-4-yl)methyl)-N^2-(4-methoxy-3-(3-(pyrrolidin-1-yl)propoxy)phenyl)pyrimidine-2,4-diamine], the IC50 lay in the range of 0.1 to 1 µM. Regarding `COc1ccc(Nc2ncc(C)c(NCC3CCN(C(C)=O)CC3)n2)cc1OCCCN1CCCC1` [Compound 55], the IC50 was in the range of 1 to 10 µM. Still for that read-out and setting: to `c1cc(Nc2nccc(NCC3CCNCC3)n2)cc(OCCCN2CCCC2)c1` [Compound 88] belongs 1 to 10 µM. Turning to `CNc1ccnc(Nc2ccc(OC)c(OCCCN3CCCC3)c2)n1` [Compound 1, N^2-(4-methoxy-3-(3-(pyrrolidin-1-yl)propoxy)phenyl)-N^4-methylpyrimidine-2,4-diamine], the IC50 is less than 0.1 µM. With `COc1ccc(Nc2nccc(N(C)Cc3ccncc3)n2)cc1OCCCN1CCCC1` [Compound 56], the IC50 is 1 to 10 µM.

As for `COc1ccc(Nc2nccc(NCC3CCN(CC(F)(F)F)CC3)n2)cc1OCCCN1CCCC1` [Compound 4, N^2-(4-methoxy-3-(3-(pyrrolidin-1-yl)propoxy)phenyl)-N^4-((1-(2,2,2-trifluoroethyl)piperidin-4-yl)methyl)pyrimidine-2,4-diamine], the IC50 fell in the range of 0.1 to 1 µM. In the case of `COc1ccc(Nc2nccc(NC3CCOCC3)n2)cc1OCCCN1CCCC1` [Compound 5, N^2-(4-methoxy-3-(3-(pyrrolidin-1-yl)propoxy)phenyl)-N^4-(tetrahydro-2H-pyran-4-yl)pyrimidine-2,4-diamine], the IC50 lay within 0.1 to 1 µM.

Still in this test, the particulars now being: Table III; MDA-MB-231 H3K9me2 in-cell Western; read-out: EHMT2 ICW (IC50 μM).
For `CNc1ccnc(Nc2ccc(OC)c(OCC3CCN(C4CC4)C3)c2)n1` (stereo not drawn) [Compound 411, N^2-(3-((1-cyclopropylpyrrolidin-3-yl)methoxy)-4-methoxyphenyl)-N^4-methylpyrimidine-2,4-diamine], the IC50 fell in the range of 0.1 to 1 µM. With `CNc1ccnc(Nc2ccc3c(c2)C(=O)N(CCN2CCCC2)CC3)n1` [Compound 264, 7-((4-(methylamino)pyrimidin-2-yl)amino)-2-(2-(pyrrolidin-1-yl)ethyl)-3,4-dihydroisoquinolin-1(2H)-one], the IC50 is greater than 10 µM. Take `CNc1ccnc(Nc2ccc(OC)c(COC3CCN(C)C3)c2)n1` (stereo not drawn) [Compound 407, N^2-(4-methoxy-3-(((1-methylpyrrolidin-3-yl)oxy)methyl)phenyl)-N^4-methylpyrimidine-2,4-diamine]: the IC50 lay within 0.1 to 1 µM. On to `CNc1ccnc(Nc2ccc3cnn(CCN(C)C)c3c2)n1` [Compound 386], for which the IC50 was greater than 10 µM. For the compound `COc1ccc(Nc2ccnc3[nH]ccc23)cc1OCCCN1CCCC1` [Compound 374], the IC50 is greater than 10 µM. `CNc1ccnc(Nc2ccc(OC)c(OCCCN3CC(O)C3)c2)n1` [Compound 414, 1-(3-(2-methoxy-5-((4-(methylamino)pyrimidin-2-yl)amino)phenoxy)propyl)azetidin-3-ol]: the IC50 was in the range of 0.1 to 1 µM. In the case of `CNc1nccc(Nc2ccc(OC)c(OCCCN3CCCC3)c2)n1` [Compound 355], the IC50 was in the range of 0.1 to 1 µM.

As for `CNc1ccnc(Nc2ccc(OC)c(OCC3CCCN(C)C3)c2)n1` (stereo not drawn) [Compound 412, N^2-(4-methoxy-3-((1-methylpiperidin-3-yl)methoxy)phenyl)-N^4-methylpyrimidine-2,4-diamine], the IC50 lay within 1 to 10 µM. Same read-out and setting: the same measure for `CNc1ccnc(Nc2ccc(OC)c(OCC3CCN(C)C3)c2)n1` (single isomer, unassigned) [Compound 415]: 1 to 10 µM; for `CNc1nc(Nc2ccc(OC)c(OCCCN3CCCC3)c2)ncc1C#N` [Compound 357]: greater than 10 µM.

On to `CNc1ccnc(Nc2ccc(OC)c(OC[C@@H](O)CN3CCCC3)c2)n1` (single isomer, unassigned) [Compound 377], for which the IC50 was greater than 10 µM. Take `CNc1ccnc(Nc2cccc(COCCN3CCCC3)c2)n1` [Compound 383]: the IC50 is greater than 10 µM.

In the case of `CNc1cc(C#N)nc(Nc2ccc(OC)c(OCCCN3CCCC3)c2)n1` [Compound 384], the IC50 is greater than 10 µM. For `CNc1ccnc(Nc2ccc(OC)c(OC[C@H](O)CN3CCCC3)c2)n1` (single isomer, unassigned) [Compound 376], the IC50 fell in the range of 1 to 10 µM. Consider `COc1ccc(Nc2ccc3cn(C)nc3n2)cc1OCCCN1CCCC1` [Compound 402], for which the IC50 is greater than 10 µM. With `CNc1ccnc(Nc2ccc3cnn(CCCN(C)C)c3c2)n1` [Compound 388, N^2-(1-(3-(dimethylamino)propyl)-1H-indazol-6-yl)-N^4-methylpyrimidine-2,4-diamine], the IC50 is greater than 10 µM. For the compound `CNc1ncc(C(F)(F)F)c(Nc2ccc(OC)c(OCCCN3CCCC3)c2)n1` [Compound 359], the IC50 was greater than 10 µM.

For `CNc1ccnc(Nc2ccc(OC)c(OCC3CCN(CCOC)C3)c2)n1` (stereo not drawn) [Compound 410, N^2-(4-methoxy-3-((1-(2-methoxyethyl)pyrrolidin-3-yl)methoxy)phenyl)-N^4-methylpyrimidine-2,4-diamine], the IC50 is greater than 10 µM. Consider `CCc1cc(NC)nc(Nc2ccc(OC)c(OCCCN3CC[C@@H](F)C3)c2)n1` [Compound 385], for which the IC50 lay within 1 to 10 µM.

With `CNc1ccnc(Nc2ccc3c(C)nn(CCCN(C)C)c3c2)n1` [Compound 389], the IC50 is greater than 10 µM. Consider `CC(C)Nc1ccnc(Nc2cccc(OCCCN3CC[C@@H](F)C3)c2)n1` [Compound 375], for which the IC50 was greater than 10 µM. With `CNc1cc(OC)nc(Nc2ccc(OC)c(OCCCN3CCCC3)c2)n1` [Compound 261, 6-methoxy-N^2-(4-methoxy-3-(3-(pyrrolidin-1-yl)propoxy)phenyl)-N^4-methylpyrimidine-2,4-diamine], the IC50 is greater than 10 µM. As for `CCN1CCC(COc2cc(Nc3nccc(NC)n3)ccc2OC)C1` (stereo not drawn) [Compound 408, N^2-(3-((1-ethylpyrrolidin-3-yl)methoxy)-4-methoxyphenyl)-N^4-methylpyrimidine-2,4-diamine], the IC50 was 0.1 to 1 µM. For `CNc1ccnc(Nc2cccc(N3CCC(N(C)C)C3)c2)n1` (stereo not drawn) [Compound 397], the IC50 is greater than 10 µM. On the same count and under the same terms, the same measure for `COc1ccc(Nc2nccc3[nH]ncc23)cc1OCCCN1CCCC1` [Compound 373]: greater than 10 µM. As for `CNc1cncc(Nc2ccc(OC)c(OCCCN3CCCC3)c2)n1` [Compound 371], the IC50 is greater than 10 µM. Regarding `CNc1cc(C(F)(F)F)nc(Nc2ccc(OC)c(OCCCN3CCCC3)c2)n1` [Compound 362], the IC50 is greater than 10 µM. Still for that read-out and setting: the same measure for `CNc1cc(C)nc(Nc2ccc(OC)c(COC3CCN(C)C3)c2)n1` (stereo not drawn) [Compound 421, N^2-(4-methoxy-3-(((1-methylpyrrolidin-3-yl)oxy)methyl)phenyl)-N^4,6-dimethylpyrimidine-2,4-diamine]: 1 to 10 µM; for `CCNC(=O)c1cccc(Nc2nccc(NC)n2)c1` [Compound 394]: greater than 10 µM.

Turning to `COc1ccc(Nc2nccc(N)n2)cc1OCCCN1CCCC1` [Compound 369], the IC50 was 1 to 10 µM. On to `CNc1cc(C)nc(Nc2ccc(F)c(OCCCN3CCCC3)c2)n1` [Compound 356], for which the half-maximal inhibitory concentration (IC50) is greater than 10 µM.

Regarding `CNc1ccnc(Nc2ccc(F)c(OCCCN3CCCC3)c2)n1` [Compound 368], the IC50 was greater than 10 µM.

On to `CNc1ccnc(Nc2ccc(OC)c(OCC3CCN(CC4CC4)C3)c2)n1` (stereo not drawn) [Compound 422, N^2-(3-((1-(cyclopropylmethyl)pyrrolidin-3-yl)methoxy)-4-methoxyphenyl)-N^4-methylpyrimidine-2,4-diamine], for which the IC50 fell in the range of 1 to 10 µM.

For `COc1ccc(Nc2nccc(NC(C)C3CCOCC3)n2)cc1OCCCN1CCCC1` (stereo not drawn) [Compound 378], the IC50 lay in the range of 0.1 to 1 µM. Take `COc1ccc(Nc2cccc3[nH]ccc23)cc1OCCCN1CCCC1` [Compound 265, N-(4-methoxy-3-(3-(pyrrolidin-1-yl)propoxy)phenyl)-1H-indol-4-amine]: the IC50 is greater than 10 µM. Still for that read-out and setting: to `CNc1ccnc(Nc2ccc(OC)c(OCCCN(C)C)c2)n1` [Compound 387] belongs 0.1 to 1 µM.
